Experimental data taken from article PMC6389625, “The Impact and Mechanism of a Novel Allosteric AMPA Receptor Modulator LCX001 on Protection Against Respiratory Depression in Rodents” (Frontiers in Pharmacology, 2019).

Columns and labels:
[1] = system: rat dentate gyrus; design: method as in Street et al., 2008; Mueller and Street, 2012; conditions: ref Street et al., 2008, Mueller and Street, 2012; cited from earlier work
[2] = system: intracellular calcium concentration ([Ca^2+]i) of cultured medullary neurons; assay: Ca2+ imaging (Fluo-4 NW) in primary medulla oblongata neurons; format: cell-based, rat; conditions: 40 μM final at 7 min, after glutamate 18 μM and fentanyl or TH-030418 42 μM
[3] = system: SEP-GluA1; assay: Live cell imaging of SEP-GluA1 surface expression in primary medulla oblongata neurons; format: cell-based, rat; conditions: 47 μM final, added at 2 min; P > 0.05
[4] = system: male KM mice; assay: Acetic acid writhing test; format: in vivo, mouse; conditions: for inhibition of acetic acid-induced writhing: 10 min before 0.6% acetic acid
[5] = system: AMPA receptors; assay: [3H]AMPA binding to brainstem membranes; design: species or system rat; conditions: for specific [3H]AMPA binding: 200 nM [3H]AMPA
Experimental: Adult male SD rats (220–250 g) were euthanized by decapitation. The brainstems were dissected and homogenized for 2 min in 15 volumes of ice-cold 50 mM Tris–HCl buffer (pH 7.4) at 4°C. The homogenates were centrifuged at 1,000 g for 10 min, and the supernatants were collected and centrifuged at 40,000 g for 20 min. The pellets were dispersed in 50 mM Tris-HCl pH 7.4 and centrifuged at 40,000 g for 20 min. The last procedures were repeated a third time with a total of four washes to eliminate endogenous glutamate from the tissue. The resulting pellets were suspended in eight volumes of 0.3 M sucrose, then stored at –70°C until use. […] The binding reaction was performed in disposable glass culture tubes at 25°C for 60 min. […] The pellets were washed with ice-cold Tris-HCl pH 7.4 three times and dried with a piece of tissue paper. […] The binding activity on the filters was detected using a LS6500 scintillation counter (Beckman, Shanghai, China). […] Data are presented as the mean ± standard error of the mean (SEM). In the acetic acid writhing and hot-plate tests, experiments were performed blind. Compounds were injected by one researcher and the behavior or data was recorded by another researcher. The significance of change in respiratory parameters was evaluated by repeated measures two-way ANOVA (dose × time) followed by Bonferroni post-hoc tests for comparisons between groups. In the analysis of the acetic acid writhing test, hot-plate test and [^3H]AMPA binding assay, statistical evaluation between the treated groups and control group was performed by one-way ANOVA followed by Dunnett’s test. For saturation binding with [^3H]AMPA, Kd and Bmax values of different groups were obtained from fits to saturation binding curves with the KaleidaGraph programme. For whole-cell patch-clamp recordings, dose-response curves were fitted to the Hill equation using Origin 9.0 software (Originlab, MA, United States) and statistical significance was determined by one-way ANOVA followed by Dunnett’s test. For live cell imaging, two-way ANOVA followed by Bonferroni post-hoc tests was used to compare the treated groups and vehicle group.

[6] = system: female KM mice; assay: Hot-plate test; format: in vivo, mouse
[7] = system: unanaesthetised adult male SD rats
[8] = molecular target: T1, SEP-GluA2(R) (Rattus norvegicus, UniProt P19491, Q607R); assay: Live cell imaging of SEP-GluA2(R) surface expression in primary medulla oblongata neurons; format: cell-based; conditions: 47 μM final, added at 2 min
T1 construct: adenovirus by Hanbio biotechnology plasmid #24001; host or cells: primary medulla oblongata neurons of neonatal SD rats

[9] = system: rodents; assay: Observation of over-excitability after administration; format: in vivo; conditions: up to 60 mg/kg
[10] = molecular target: T2, recombinant homomeric GluA2(R)flop receptor (Rattus norvegicus, UniProt P19491, Q607R); assay: Whole-cell patch-clamp recording of glutamate-evoked currents in HEK293 cells; format: cell-based
T2 construct: rat AMPA-GluA2(R)flop cDNA corresponding to the entire coding region; expressed in transfected cells
Experimental: A wild-type rat AMPA-GluA2(R)flop cDNA corresponding to the entire coding region was generated and cloned into the pcDNA^TM3.1(+) vector (Invitrogen, China, Catalog no. V790-20) by Sangon Biotech Co., Ltd. (Shanghai, China). […] For stable transfection, HEK293 cells (3 × 10^4 cells/well) were seeded in 24-well plates the day before transfection. The cells were grown to 70–90% confluency, and the transfection was performed by adding 1 μg of GluA2 expressing vector per well. Twenty-four hours after transfection, the normal medium was replaced with DMEM/F12 (Gibco, Shanghai, China) growth medium supplemented with 1.0 mg/ml G418 (Gibco, Shanghai, China) and cultured for 7 days. The surviving cells were pelleted and dispersed (100 cells/20 ml), and then seeded into 96-well plates in DMEM/F12 medium containing 500 μg/ml G418. Discrete colonies were picked after 15 days of selection. Western blotting and whole-cell patch-clamp recording were performed to test expression of the AMPA receptor GluA2 subunit and formation of an AMPA-GluA2 ion channel. G418 was kept at 500 μg/ml for the maintenance of stably transfected clones.
HEK293 cells that stably expressed AMPA-GluA2 receptors were seeded into the recording chamber 2 days before patch-clamp recordings, and the experiments were conducted in whole-cell configuration. Thin-walled borosilicate glass (Sutter Instrument, CA, United States) was pulled to make patch pipettes. […] The holding potential was set as -80 mV by an Axopatch-700B amplifier (Axon Instruments, CA, United States), and pClamp8 software (Axon Instruments, CA, United States) was used for data acquisition. Currents were recorded and digitized at 10 kHz. […] LCX001 and CX614 were dissolved in dimethyl sulfoxide (DMSO) before dilution with external bath solution (DMSO final concentration 0.5%). Dose-response curves were fitted to the Hill equation using Origin 9.0 software.

T2 sequence (P19491 22-883 Q607R): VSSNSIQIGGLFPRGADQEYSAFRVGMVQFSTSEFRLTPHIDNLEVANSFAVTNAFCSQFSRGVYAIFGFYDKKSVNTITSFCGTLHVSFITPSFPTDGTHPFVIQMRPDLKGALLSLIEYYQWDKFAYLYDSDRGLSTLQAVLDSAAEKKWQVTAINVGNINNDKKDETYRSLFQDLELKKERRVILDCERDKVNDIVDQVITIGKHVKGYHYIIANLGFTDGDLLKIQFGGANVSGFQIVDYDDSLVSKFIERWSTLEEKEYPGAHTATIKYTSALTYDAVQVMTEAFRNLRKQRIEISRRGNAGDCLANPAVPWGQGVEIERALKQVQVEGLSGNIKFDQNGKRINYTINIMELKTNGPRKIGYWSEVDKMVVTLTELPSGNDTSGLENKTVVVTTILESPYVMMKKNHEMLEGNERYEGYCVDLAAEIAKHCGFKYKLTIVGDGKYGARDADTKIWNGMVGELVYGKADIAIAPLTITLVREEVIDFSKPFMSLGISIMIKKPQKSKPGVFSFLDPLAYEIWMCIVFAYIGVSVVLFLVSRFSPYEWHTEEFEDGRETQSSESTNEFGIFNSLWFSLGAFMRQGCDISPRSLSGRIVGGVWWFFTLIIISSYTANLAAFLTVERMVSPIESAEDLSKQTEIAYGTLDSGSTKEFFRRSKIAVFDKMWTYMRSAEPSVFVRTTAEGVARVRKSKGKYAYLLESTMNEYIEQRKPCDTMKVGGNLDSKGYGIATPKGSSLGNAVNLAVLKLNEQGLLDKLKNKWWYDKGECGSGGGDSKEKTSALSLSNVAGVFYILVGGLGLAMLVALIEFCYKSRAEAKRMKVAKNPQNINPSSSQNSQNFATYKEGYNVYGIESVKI
T1 sequence (P19491 22-883 Q607R): as above

In the case of `CN(C(=O)c1ccc2nonc2c1)[C@H]1CC[C@H](O)CC1` [LCX001, N-((1r,4r)-4-hydroxycyclohexyl)-N-methylbenzo[c][1,2,5]oxadiazole-5-carboxamid], the “increase in the amplitude of synaptic currents” value [1] is listed as 21%, the “effect on the increased level of [Ca^2+]i in response to fentanyl and TH-030418” value [2] is listed as “significantly blocked” and the SEP-GluA1 fluorescence intensity [3] is listed as “no impact”. The “inhibition of acetic acid-induced writhing” value (“inhibition” below) ([4]; 1.5 mg/kg i.v.) was 30.76 ± 12.75%, the “inhibition” value ([4]; 3 mg/kg i.v.) was 41.43 ± 11.32% and the “inhibition” value ([4]; 6 mg/kg i.v.) was 85.35 ± 9.53%. For the same molecule, the “inhibition” value ([4]; 12 mg/kg i.v.) was 94.78 ± 2.74%, the “impact on the analgesic effect of morphine (writhing test)” value ([4]; LCX001 12 mg/kg i.v. 10 min before morphine 2.5 mg/kg s.c., P > 0.05) was “no impact” and the “specific [3H]AMPA binding” value ([5]; LCX001 10^-4 M, control 1595 ± 30) was 2095 ± 87 cpm/mg protein. For the same molecule, the “Bmax of [3H]AMPA after pre-incubation with LCX001” value ([5]; LCX001 10^-4 M, without LCX001 6.89 ± 0.11) was 7.77 ± 0.17 pmol/mg of protein, the “specific [3H]AMPA binding” value ([5]; LCX001 10^-5 M, control 1595 ± 30) was 1964 ± 27 cpm/mg protein and the “specific [3H]AMPA binding” value ([5]; LCX001 10^-6 M, control 1595 ± 30) was 1857 ± 20 cpm/mg protein. The “specific [3H]AMPA binding” value ([5]; LCX001 10^-9–10^-7 M, control 1595 ± 30 cpm/mg protein) was “unchanged”, the “%MPE compared with vehicle” value ([6]; 1.5 mg/kg i.v., 10 min after administration, P > 0.05) was “no effect” and the “%MPE compared with vehicle” value ([6]; 3 mg/kg i.v., 10 min after administration, P > 0.05) was “no effect”. For the same molecule, the “%MPE” value ([6]; 6 mg/kg i.v., 10 min after administration) was 30.18 ± 10.56%, the “%MPE” value ([6]; 12 mg/kg i.v., 10 min after administration) was 65.27 ± 12.22% and the “impact on the analgesic effect of morphine (hot-plate test)” value ([6]; LCX001 12 mg/kg i.v. 10 min before morphine 10 mg/kg s.c., P > 0.05) was “no impact”. The “effect on Nembutal-induced respiratory depression” value ([7]; LCX001 10 mg/kg i.v. 5 min after Nembutal 80 mg/kg i.p., P < 0.05) was “ameliorated respiratory depression”, the “effect on TH-030418-induced respiratory depression” value ([7]; LCX001 10 mg/kg i.v. 5 min after TH-030418 20 μg/kg i.v., P < 0.05) was “alleviated the reduction of respiratory parameters” and the “effect on fentanyl-induced respiratory depression (respiratory frequency, minute ventilation)” value ([7]; LCX001 10 mg/kg i.v. 5 min after fentanyl 120 μg/kg s.c., P < 0.05) was “effectively countered the inhibition of respiratory frequency and minute ventilation”. For the same molecule, the “effect on propofol-induced respiratory depression” value ([7]; LCX001 10 mg/kg i.v. 10 min before propofol 30 mg/kg i.v., P < 0.05) was “reversed the acute reduction of respiratory frequency and minute ventilation”, the SEP-GluA2 fluorescence intensity [8] was “significant and fast increase” and the over-excitability after administration [9] was “no evidence of over-excitability”. For the same molecule, the “nH of glutamate concentration-response curve in the presence of modulator” value ([10]; 100 μM modulator) was 0.84, the “glutamate evoked peak amplitude” value ([10]; 3.5 mM glutamate, 100 μM modulator, control 432 ± 27 pA) was 711 ± 20 pA and the “glutamate evoked peak amplitude” value ([10]; 10 mM glutamate, 100 μM modulator, control 752 ± 35 pA) was 1120 ± 60 pA. For the same molecule, the “current induced by compound alone” value ([10]; in the absence of glutamate) was “no current”.
With `CCCC(C)C1(CC)C(=O)NC(=O)NC1=O` (stereo not shown) [Nembutal, reference compound] the respiratory frequency ([7]; male, SD, rat, in vivo) was 70.3 ± 2.7 % of control.
For `Cc1o[nH]c(=O)c1CC(N)C(=O)O` (stereo not shown) [[^3H]AMPA, reference compound], the “Bmax of [3H]AMPA saturation binding” value ([5]; without LCX001, one-site model) was 6.89 ± 0.11 pmol/mg of protein and the Kd ([5]; without LCX001, one-site model, read-out: Kd of [3H]AMPA saturation binding) was 171 ± 5 nM.
With `CN1CC[C@]23c4c5ccc(O)c4O[C@H]2[C@@H](O)C=C[C@H]3[C@H]1C5` [morphine, reference compound] the “%MPE” value ([6]; 10 mg/kg s.c., 30 min after injection, 55°C) was “about 100%”.
With `CC(C)c1cccc(C(C)C)c1O` [propofol, reference compound] the “duration of propofol-mediated respiratory depression” value ([7]; male, SD, rat, in vivo) was 15 to 25 min and the respiratory frequency ([7]; male, SD, rat, in vivo) was 53.6 ± 5.8 % of control.
